Experimental data: patent US9662329B2, “Use of survivin antagonists in polyomavirus-related disease” (University of Pittsburgh—Of the Commonwealth System of …, priority 2012, dated 2017)
Counter-ions that a name gives are not always drawn. Like-named read-outs stand apart in the source and are kept apart here.

Key:
Assay type in all cases: cell-based, human
MKL-1 = experiment: Cell Titer Glo dose-response study
Source text: (§1) Seven Merkel cell carcinoma cell lines: MKL-1, MKL-2, MS-1, UISO, MCC13, MCC26 and WaGa (kind gift of Jurgen Becker (Houben et al., Merkel cell polyomavirus-infected Merkel cell carcinoma cells require expression of viral T antigens. J Virol 84, 7064 (July, 2010); Ronan et al., Merkel cell carcinoma: in vitro and in vivo characteristics of a new cell line. J Am Acad Dermatol 29, 715 (November, 1993); Rosen et al., Establishment and characterization of a neuroendocrine skin carcinoma cell line. Lab Invest 56, 302 (March, 1987)); NCI-H69 small cell lung cancer cell line (ATCC); 293 human embryonic kidney cells (ATCC); U2OS osteosarcoma cell line (kind gift of Ole Gjoerup); BJhTERT immortalized foreskin fibroblast cell line (kind gift of Ole Gjoerup); and BJ primary foreskin fibroblasts (ATCC) were used to screen and evaluate the small molecules examined in this study (Houben et al., J Virol 84, 7064 (July, 2010); Ronan et al., J Am Acad Dermatol 29, 715 (November, 1993); Rosen et al., Lab Invest 56, 302 (March, 1987)). The Merkel cell lines and NCI-H69 were grown in RPMI 1640 supplemented with 10% fetal calf serum, penicillin and streptomycin at 37° C. in humidified air containing 5% CO2. The remaining cell lines were grown in DMEM supplemented with 10% fetal calf serum.
(§2) For EC50 measurements, dose-response curves were established for 17 drugs obtained individually in bulk stocks. Iodoacetamide (I1149), sanguarine chloride (S5890), NSC95397 (N1786), chelerythrine chloride (C2932), calmidazolium chloride (C3930), tetraethylthiuram disulfide (T1132), bay 11-7085 (B5681), quinacrine dihydro chloride (Q3251), ellipticine (E3380), amsacrine hydrochloride (A9809) and nutlin-3 (N6287) were purchased from Sigma Aldrich, USA.
(§3) Compounds that met the selection criteria <10% cell survival were purchased or obtained in bulk from NCI/NIH Developmental Therapeutics Program. Serial drug dilutions from 10^−4 M to 10^−9 M were used on MCC and non-MCC cell lines. Cells were seeded into 384-well plates at 6000 cells in 50 μl of medium per well. After 24 hours, 25 μl of 3× drugs were added at increasing concentration to each well. Cell viability was then measured using Cell Titer Glo (Promega) kit following manufacturer's instructions as described previously. Each drug concentration was tested in triplicate for each cell line and experiments were repeated twice. EC50 doses for the drugs were calculated using a four parameter logistic equation (GraphPad Prism).

MKL-2 = experiment: Cell Titer Glo dose-response study; conditions: read-out: EC50 concentrations for MCC cell lines, MKL-2
Source text: as §1, §2, §3

MS-1 = experiment: Cell Titer Glo dose-response study
Source text: as §1, §2, §3

UISO = experiment: Cell Titer Glo dose-response study; conditions: read-out: EC50 concentrations for MCC cell lines, UISO
Source text: as §1, §2, §3

WaGa = experiment: Cell Titer Glo dose-response study; conditions: read-out: EC50 concentrations for MCC cell lines, WaGa
Source text: as §1, §2, §3

MKL-1 cells [1] = experiment: Cell cycle analysis (PI and BrdU staining); conditions: 12 h, YM155 100 nM, camptothecin 1 μM
Method: MKL-1 cells were treated with Accutase (Millipore) to break clumps and then resuspended in fresh medium containing drug and treated for 12 hours. Three hours before harvest 10 μM Bromodeoxyuridine (BrdU) was added. Cells were then harvested and fixed in chilled 70% ethanol and left overnight. The next day cells were washed, resuspended in 200 μl of 2M HCl/Triton X (1%) and incubated for 30 mins at room temperature. Cells were then centrifuged at 2000 rpm for 10 mins and neutralized in 200 μl of 0.1M sodium tetraborate, pH 8.5 solution. Cells were then washed, suspended in 20 μl of PBS containing 0.5% tween20, 1% donkey serum and 2ul of anti-BrdU antibody (1:10 diution, BD Biosciences) and incubated overnight at 4° C. Cells were then washed and incubated with secondary antibody-anti mouse Alexa488 (1:1000) for 1 hour at room temperature. Cells were finally washed, suspended in PBS containing 100 μg/ml of RNase A, 50 μg/ml of PI (propidium iodide) and 0.05% Triton X and incubated for 30 mins at 37° C. in the dark. The cells were then subjected to FACS using the accuri C6 flow cytometer (UPCI shared resources).

MKL-1 cells [2] = experiment: MKL-1 cytotoxicity screen (Cell Titer Glo); conditions: screened at 10^-5 M; 48 hours; cut-off <10% cell survival
Source text: A total of 1,360 compounds were used in the initial screening survey: 1,280 compounds from LOPAC1280 library (Sigma Aldrich, accessed through University of Pittsburgh Drug Discovery Institute), 89 compounds from NCI's Approved Oncology Drug Set II (from The NCI/DTP Open Chemical Repository, http://dtp.cancer.gov), 6 LT ATPase inhibitors (MAL2-11B, MAL3-101, MAL2-51, DMT3084, bithionol and hexachlorophene (Wright et al., Inhibition of Simian Virus 40 replication by targeting the molecular chaperone function and ATPase activity of T antigen. Virus Res 141, 71 (April, 2009); Seguin et al., High-Throughput Screening Identifies a Bisphenol Inhibitor of SV40 Large T Antigen ATPase Activity. […] NCI Approved Oncology Drug Set II, SV40 LT ATPase inhibitors and MDM2 inhibitors were reconstituted as recommended by supplier. […] Reconstituted compounds were diluted in cell culture media to obtain a 100× stock concentration prior to addition to cells. Doxorubicin (positive control) was obtained from Sigma-Aldrich and DMSO (negative control) was obtained from Fisher Bioreagents.
MKL-1 cells were seeded at a density of 6000 cells in 50 μl of medium per well (120 cells/μl) in opaque polypropylene 384-well microplates (#781080, Greiner Bio-One, Germany). Cells were incubated at 37° C. in humidified air containing 5% CO2 for 24 hours. Thereafter, 25 μl of medium containing 3× drug per well was added to the plates, which were incubated for an additional 48 hours. Cell viability was measured using Cell Titer Glo (Promega) following manufacturer's instructions.
The LOPAC1280 library was screened at a final concentration of 10 μM for each compound and the NCI library was screened at a final concentration of 1 μM for each compound.
Cell Titer Glo assays were performed in duplicate using 384 well plates, each containing 24 wells with 1% DMSO (negative control) and 32 wells with 200 μM doxorubicin (positive control). Screening results were evaluated on the basis of percentage cell survival normalized to the DMSO control (100%). Positive candidates were identified using a cut-off value of <10% cell survival.

[3] = MKL-1 (MCV-positive), Cell Titer Glo, read-out: EC50 concentrations for MCC cell lines, MKL-1
[4] = MKL-2 (MCV-positive), Cell Titer Glo
[5] = MS-1 (MCV-positive), Cell Titer Glo, read-out: EC50 concentrations for MCC cell lines, MS-1
[6] = UISO (MCV-negative), Cell Titer Glo
[7] = WaGa (MCV-positive), Cell Titer Glo
[8] = Homo sapiens, MKL-1 (MCV-positive), Cell Titer Glo, read-out: EC50 concentrations for MCC cell lines, MKL-1
[9] = Homo sapiens, MKL-2 (MCV-positive), Cell Titer Glo
[10] = Homo sapiens, MS-1 (MCV-positive), Cell Titer Glo, read-out: EC50 concentrations for MCC cell lines, MS-1
[11] = Homo sapiens, UISO (MCV-negative), Cell Titer Glo
[12] = Homo sapiens, WaGa (MCV-positive), Cell Titer Glo
[13] = Homo sapiens, MKL-1, read-out: EC50 concentrations for MCC cell lines, MKL-1
[14] = Homo sapiens, MS-1, read-out: EC50 concentrations for MCC cell lines, MS-1

SMILES	EC50 (MKL-1; [8]) [µM]	EC50 (MKL-2; [9]) [µM]	EC50 (MS-1; [10]) [µM]	EC50 (UISO; [11]) [µM]	EC50 (WaGa; [12]) [µM]	also measured
CC(C)(C)c1ccc(S(=O)(=O)/C=C/C#N)cc1 [Bay 11-7085]	–	–	–	–	–	EC50 (MKL-1; [3]): 1.4 µM; EC50 (MKL-2; [4]): 1.7 µM; EC50 (MS-1; [5]): 2.7 µM; EC50 (UISO; [6]): 4.5 µM; EC50 (WaGa; [7]): 1.2 µM
CC[C@@]1(O)C(=O)OCc2c1cc1n(c2=O)Cc2cc3ccccc3nc2-1 [camptothecin]	–	–	–	–	–	BrdU incorporation (MKL-1 cells [1]): accumulation of BrdU-positive cells in G1 and G2
CO[C@H]1C[C@@H]2CC[C@@H](C)[C@@](O)(O2)C(=O)C(=O)N2CCCC[C@H]2C(=O)O[C@H]([C@H](C)C[C@@H]2CC[C@@H](O)[C@H](OC)C2)CC(=O)[C@H](C)/C=C(\C)[C@@H](O)[C@@H](OC)C(=O)[C@H](C)C[C@H](C)/C=C/C=C/C=C/1C [rapamycin]	–	–	–	–	–	activity in screen (>90% inhibition of MKL-1 cell growth) (MKL-1 cells [2]): not active
CC[C@@]1(O)C(=O)OCc2c1cc1n(c2=O)Cc2cc3c(CN(C)C)c(O)ccc3nc2-1 [Topotecan]	0.028	0.43	0.62	0.17	0.015	–
O=C1c2c(O)ccc(O)c2C(=O)c2c(NCCNCCO)ccc(NCCNCCO)c21 [Mitoxantrone]	0.006	1.3	1.6	0.97	0.014	–
Clc1ccc(C(c2ccc(Cl)cc2)n2cc[n+](CC(OCc3ccc(Cl)cc3Cl)c3ccc(Cl)cc3Cl)c2)cc1 (stereo not drawn) [Calmidazolium chloride]	2.2	1.7	2.1	2	2.1	–
COc1ccc(C2=N[C@@H](c3ccc(Cl)cc3)[C@@H](c3ccc(Cl)cc3)N2C(=O)N2CCNC(=O)C2)c(OC(C)C)c1 [nutlin-3]	–	–	–	–	–	activity in screen (>90% inhibition of MKL-1 cell growth) (MKL-1 cells [2]): not active
CCCCC(=O)OCC(=O)[C@]1(O)Cc2c(O)c3c(c(O)c2[C@@H](O[C@H]2C[C@H](NC(=O)C(F)(F)F)[C@H](O)[C@H](C)O2)C1)C(=O)c1c(OC)cccc1C3=O [Valrubicin]	0.23	2.8	9.9	4	0.32	–
NC(=O)c1ncn([C@@H]2O[C@H](CO)[C@@H](O)[C@H]2O)n1 [ribavirin]	–	–	–	–	–	activity in screen (>90% inhibition of MKL-1 cell growth) (MKL-1 cells [2]): not active
COc1cccc2c1C(=O)c1c(O)c3c(c(O)c1C2=O)C[C@@](O)(C(=O)CO)C[C@@H]3O[C@H]1C[C@H](N)[C@H](O)[C@H](C)O1 [Doxorubicin]	0.21	0.022	0.37	0.25	0.022	–
CCC(=O)N1CCN(c2ccc(-n3c(=O)ccc4cnc5ccc(-c6cnc7ccccc7c6)cc5c43)cc2C(F)(F)F)CC1 [Torin1]	–	–	–	–	–	activity in screen (>90% inhibition of MKL-1 cell growth) (MKL-1 cells [2]): not active
COc1cc(NS(C)(=O)=O)ccc1Nc1c2ccccc2nc2ccccc12 [Amsacrine hydrochloride]	0.11	3	7.5	2.6	0.25	–
Nc1nc2c(ncn2COCCO)c(=O)[nH]1 [acyclovir]	–	–	–	–	–	activity in screen (>90% inhibition of MKL-1 cell growth) (MKL-1 cells [2]): not active
CO[C@H]1C[C@@H]2CC[C@@H](C)[C@@](O)(O2)C(=O)C(=O)N2CCCC[C@H]2C(=O)O[C@H]([C@H](C)C[C@@H]2CC[C@@H](OCCO)[C@H](OC)C2)CC(=O)[C@H](C)/C=C(\C)[C@@H](O)[C@@H](OC)C(=O)[C@H](C)C[C@H](C)/C=C/C=C/C=C/1C [everolimus]	–	–	–	–	–	activity in screen (>90% inhibition of MKL-1 cell growth) (MKL-1 cells [2]): not active
CCN(CC)C(=S)SSC(=S)N(CC)CC [Tetraethylthiuram disulfide]	0.49	0.19	6.3	13	1.1	–
C[n+]1cc2c3c(ccc2c2ccc4cc5c(cc4c21)OCO5)OCO3 [Sanguinarine chloride]	–	–	–	–	–	EC50 (MKL-1; [13]): 5.3 µM; EC50 (MKL-2; Homo sapiens): 8.4 µM; EC50 (MS-1; [14]): 4.9 µM; EC50 (UISO; Homo sapiens): 6.5 µM; EC50 (WaGa; Homo sapiens): 2.5 µM
COc1cccc2c1C(=O)c1c(O)c3c(c(O)c1C2=O)C[C@@](O)(C(C)=O)C[C@@H]3O[C@H]1C[C@H](N)[C@H](O)[C@H](C)O1 [Daunorubicin]	–	–	–	–	–	EC50 (MKL-1; [13]): 0.015 µM; EC50 (MKL-2; Homo sapiens): 0.086 µM; EC50 (MS-1; [14]): 0.15 µM; EC50 (UISO; Homo sapiens): 1.4 µM; EC50 (WaGa; Homo sapiens): 0.018 µM
Cc1c2ccncc2c(C)c2c1[nH]c1ccccc12 [Ellipticine]	3.2	6.5	6.9	1.1	3	–
COc1ccc2c(c[n+](C)c3c4cc5c(cc4ccc23)OCO5)c1OC [Chelerythrine chloride]	0.6	0.65	0.52	3.7	0.7	–
CCN(CC)CCCC(C)Nc1c2ccc(Cl)cc2nc2ccc(OC)cc12 (stereo not drawn) [Quinacrine dihydrochloride]	–	–	–	–	–	EC50 (MKL-1; [13]): 5.1 µM; EC50 (MKL-2; Homo sapiens): 4.6 µM; EC50 (MS-1; [14]): 4.9 µM; EC50 (UISO; Homo sapiens): 7.1 µM; EC50 (WaGa; Homo sapiens): 5.2 µM
O=C1C(SCCO)=C(SCCO)C(=O)c2ccccc21 [NSC 95397]	–	–	–	–	–	EC50 (MKL-1; [3]): 1.2 µM; EC50 (MKL-2; [4]): 1.5 µM; EC50 (MS-1; [5]): 1.8 µM; EC50 (UISO; [6]): 2.8 µM; EC50 (WaGa; [7]): 0.73 µM
COc1cc([C@@H]2c3cc4c(cc3[C@@H](O[C@@H]3O[C@@H]5CO[C@@H](c6cccs6)O[C@H]5[C@H](O)[C@H]3O)[C@H]3COC(=O)[C@H]23)OCO4)cc(OC)c1O [Teniposide]	0.01	2.8	3	7.3	0.026	–
NC(=O)CI [Iodoacetamide]	–	–	–	–	–	EC50 (MKL-1; [13]): 0.29 µM; EC50 (MKL-2; Homo sapiens): 0.3 µM; EC50 (MS-1; [14]): 0.64 µM; EC50 (UISO; Homo sapiens): 2.5 µM; EC50 (WaGa; Homo sapiens): 0.37 µM
